{
  "source": "ChEMBL document CHEMBL4699511",
  "about": "“Cedrol, a Sesquiterpene Alcohol, Enhances the Anticancer Efficacy of Temozolomide in Attenuating Drug Resistance via Regulation of the DNA Damage Response and MGMT Expression” (J Nat Prod, 2020)",
  "key": {"RG2 [1]": {"test_system": "RG2", "assay": "Induction of cell cycle arrest in rat RG2 cells assessed as CDK4 expression at 206 uM after 48 hrs by Western blot analysis (reference value: 1)", "format": "functional"}, "RG2 [2]": {"test_system": "RG2", "assay": "Induction of DNA damage in rat RG2 cells assessed as ATM phosphorylation at ser1981 residues at 206 uM after 48 hrs by Western blot analysis (reference value: 1)", "format": "functional"}, "RG2 [3]": {"test_system": "RG2", "assay": "Induction of cell cycle arrest in rat RG2 cells assessed as accumulation at S phase at 206 uM after 48 hrs by propidium iodide staining based flow cytometric analysis (reference value: 20.15 +/- 2.44%)", "format": "functional"}, "DBTRG-05MG [4]": {"test_system": "DBTRG-05MG", "assay": "Induction of cell cycle arrest in human DBTRG-05MG cells assessed as CDK2 expression at 206 uM after 48 hrs by Western blot analysis (reference value: 1)", "format": "functional"}, "RG2 [5]": {"test_system": "RG2", "assay": "Induction of cell cycle arrest in rat RG2 cells assessed as accumulation at G2/M phase at 206 uM after 24 hrs by propidium iodide staining based flow cytometric analysis (reference value: 20.04 +/- 0.55%)", "format": "functional"}, "RG2 [6]": {"test_system": "RG2", "assay": "Induction of cell cycle arrest in rat RG2 cells assessed as accumulation at S phase at 206 uM after 12 hrs by propidium iodide staining based flow cytometric analysis (reference value: 20.15 +/- 2.44%)", "format": "functional"}, "DBTRG-05MG [7]": {"test_system": "DBTRG-05MG", "assay": "Induction of apoptosis in human DBTRG-05MG cells assessed as cleaved caspace-9 expression at 206 uM after 48 hrs by Western blot analysis (reference value: 1)", "format": "functional"}, "DBTRG-05MG [8]": {"test_system": "DBTRG-05MG", "assay": "Inhibition of ERK phosphorylation at Tyr204 residues in human DBTRG-05MG cells at 206 uM after 48 hrs by Western blot analysis (reference value: 1)", "format": "cell-based"}, "DBTRG-05MG [9]": {"test_system": "DBTRG-05MG", "assay": "Synergistic cytotoxicity against human DBTRG-05MG cells assessed as combination index at 112.4 uM after 48 hrs in presence of 412.1 uM TMZ by MTT assay", "format": "functional"}, "DBTRG-05MG [10]": {"test_system": "DBTRG-05MG", "assay": "Synergistic cytotoxicity against human DBTRG-05MG cells assessed as synergistic effect index at 89.9 uM after 48 hrs in presence of 515.1 uM TMZ by MTT assay", "format": "functional"}, "RG2 [11]": {"test_system": "RG2", "assay": "Induction of apoptosis in rat RG2 cells assessed as Bax expression at 112.4 uM after 48 hrs by Western blot analysis (reference value: 1)", "format": "functional"}, "[12]": {"assay": "Synergistic cytotoxicity against rat CTX TNA2 cells assessed as combination index at 112.4 uM after 48 hrs in presence of 206 uM TMZ by MTT assay", "format": "cell-based", "conditions": "ctx tna2, 48 h"}, "DBTRG-05MG [13]": {"test_system": "DBTRG-05MG", "assay": "Inhibition of JNK phosphorylation at Thr183/Tyr185 residues in human DBTRG-05MG cells at 112.4uM after 48 hrs by Western blot analysis (reference value: 1)", "format": "cell-based"}, "DBTRG-05MG [14]": {"test_system": "DBTRG-05MG", "assay": "Potentiation of TMZ-induced antitumor activity against human DBTRG-05MG cells xenografted in BALB/c nude mouse assessed as increase DNA damage at 75 mg/kg, sc co-treated with TMZ for 18 days by p.H2A.X staining based fluorescent immunocytochemistry method", "format": "functional, organism-based", "conditions": "time 18.0 day"}, "RG2 [15]": {"test_system": "RG2", "assay": "Synergistic cytotoxicity against rat RG2 cells assessed as synergistic effect index at 89.9 uM after 48 hrs in presence of 412.1 uM TMZ by MTT assay", "format": "functional"}, "RG2 [16]": {"test_system": "RG2", "assay": "Induction of apoptosis in rat RG2 cells assessed as cleaved caspace-3 expression at 112.4 uM after 48 hrs by Western blot analysis (reference value: 1)", "format": "functional"}, "RG2 [17]": {"test_system": "RG2", "assay": "Induction of DNA damage in rat RG2 cells assessed as Chk2 phosphorylation at Thr68 at 112.4 uM after 48 hrs by Western blot analysis (reference value: 1)", "format": "functional"}, "RG2 [18]": {"test_system": "RG2", "assay": "Synergistic cytotoxicity against rat RG2 cells assessed as synergistic effect index at 134.9 uM after 48 hrs in presence of 206 uM TMZ by MTT assay", "format": "functional"}, "DBTRG-05MG [19]": {"test_system": "DBTRG-05MG", "assay": "Synergistic cytotoxicity against human DBTRG-05MG cells assessed as combination index at 89.9 uM after 48 hrs in presence of 412.1 uM TMZ by MTT assay", "format": "functional"}, "DBTRG-05MG [20]": {"test_system": "DBTRG-05MG", "assay": "Induction of cell cycle arrest in human DBTRG-05MG cells assessed as accumulation at G2/M phase at 112.4 uM after 24 hrs by propidium iodide staining based flow cytometric analysis (reference value: 30.08 +/- 0.1%)", "format": "functional"}, "DBTRG-05MG [21]": {"test_system": "DBTRG-05MG", "assay": "Induction of apoptosis in human DBTRG-05MG cells assessed as increase in chromatin condensation at 112.4 uM after 48 hrs in presence of TMZ by TUNEL assay", "format": "functional, cell-based"}, "RG2 [22]": {"test_system": "RG2", "assay": "Induction of cell cycle arrest in rat RG2 cells assessed as accumulation at S phase at 112.4 uM after 48 hrs in presence of TMZ by propidium iodide staining based flow cytometric analysis (reference value: 20.15 +/- 2.44%)", "format": "functional"}, "RG2 [23]": {"test_system": "RG2", "assay": "Synergistic cytotoxicity against rat RG2 cells assessed as synergistic effect index at 89.9 uM after 48 hrs in presence of 103 uM TMZ by MTT assay", "format": "functional"}, "[24]": {"assay": "Effect on ERK expression in human DBTRG-05MG cells at 112.4uM after 48 hrs in presence of TMZ by Western blot analysis (reference value: 1)", "format": "functional"}, "DBTRG-05MG [25]": {"test_system": "DBTRG-05MG", "assay": "Induction of cell cycle arrest in human DBTRG-05MG cells assessed as accumulation at G0/G1 phase at 112.4 uM after 6 hrs in presence of TMZ by propidium iodide staining based flow cytometric analysis (reference value: 47.16 +/- 1.55%)", "format": "functional"}, "[26]": {"assay": "Synergistic cytotoxicity against rat CTX TNA2 cells assessed as combination index at 134.9 uM after 48 hrs in presence of 515.1 uM TMZ by MTT assay", "format": "cell-based", "conditions": "ctx tna2, 48 h"}, "[27]": {"assay": "Synergistic cytotoxicity against rat CTX TNA2 cells assessed as synergistic effect index at 89.9 uM after 48 hrs in presence of 309 uM TMZ by MTT assay", "format": "cell-based", "conditions": "ctx tna2, 48 h"}, "[28]": {"assay": "Synergistic cytotoxicity against rat CTX TNA2 cells assessed as synergistic effect index at 112.4 uM after 48 hrs in presence of 412.1 uM TMZ by MTT assay", "format": "cell-based", "conditions": "ctx tna2, 48 h"}, "DBTRG-05MG [29]": {"test_system": "DBTRG-05MG", "assay": "Induction of DNA damage in human DBTRG-05MG cells assessed as H2A.X phosphorylation at ser139 residues at 112.4 uM after 48 hrs in presence of TMZ by Western blot analysis (reference value: 1)", "format": "functional"}, "[30]": {"assay": "Synergistic cytotoxicity against rat CTX TNA2 cells assessed as synergistic effect index at 112.4 uM after 48 hrs in presence of 515.1 uM TMZ by MTT assay", "format": "cell-based", "conditions": "ctx tna2, 48 h"}, "RG2 [31]": {"test_system": "RG2", "assay": "Synergistic cytotoxicity against rat RG2 cells assessed as combination index at 112.4 uM after 48 hrs in presence of 309 uM TMZ by MTT assay", "format": "functional"}, "RG2 [32]": {"test_system": "RG2", "assay": "Induction of cell cycle arrest in rat RG2 cells assessed as accumulation at G0/G1 phase at 112.4 uM after 12 hrs in presence of TMZ by propidium iodide staining based flow cytometric analysis (reference value: 57.81 +/- 1.9%)", "format": "functional"}, "DBTRG-05MG [33]": {"test_system": "DBTRG-05MG", "assay": "Antitumour activity against human DBTRG-05MG cells xenografted in BALB/c nude mouse assessed as reduction in tumour growth at 75 mg/kg, sc for every 2 days for 20 days and measured every 2 days", "format": "functional, organism-based", "conditions": "time 20.0 day"}},
  "note": "Activity calls are given as the source filed them. The calls are words filed in the database; no cut-off is given here.",
  "data": [
    {"compound": "Cn1nnc2c(C(N)=O)ncn2c1=O", "note": "[TEMOZOLOMIDE]", "values": [
      {"measurement": "fold change (FC)", "setting": "RG2 [1]", "value": 0.6},
      {"measurement": "fold change (FC)", "setting": "RG2 [2]", "value": 0.9},
      {"measurement": "Activity", "setting": "RG2 [3]", "value": 18.32, "unit": "%"},
      {"measurement": "fold change (FC)", "setting": "DBTRG-05MG [4]", "value": 0.8},
      {"measurement": "Activity", "setting": "RG2 [5]", "value": 31.81, "unit": "%"},
      {"measurement": "Activity", "setting": "RG2 [6]", "value": 22.12, "unit": "%"},
      {"measurement": "fold change (FC)", "setting": "DBTRG-05MG [7]", "value": 1.8},
      {"measurement": "fold change (FC)", "setting": "DBTRG-05MG [8]", "value": 0.8}
    ]},
    {"compound": "C[C@@H]1CC[C@H]2C(C)(C)[C@H]3C[C@@]12CC[C@@]3(C)O", "note": "[CEDROL]", "values": [
      {"measurement": "CI", "setting": "DBTRG-05MG [9]", "value": 0.62},
      {"measurement": "Activity_index", "setting": "DBTRG-05MG [10]", "value": 0.77},
      {"measurement": "fold change (FC)", "setting": "RG2 [11]", "value": 1.1},
      {"measurement": "CI", "setting": "[12]", "value": 1.17},
      {"measurement": "fold change (FC)", "setting": "DBTRG-05MG [13]", "value": 1},
      {"measurement": "Activity", "setting": "DBTRG-05MG [14]", "value": "Active"},
      {"measurement": "Activity_index", "setting": "RG2 [15]", "value": 0.66},
      {"measurement": "fold change (FC)", "setting": "RG2 [16]", "value": 1.6},
      {"measurement": "fold change (FC)", "setting": "RG2 [17]", "value": 1},
      {"measurement": "Activity_index", "setting": "RG2 [18]", "value": 0.91},
      {"measurement": "CI", "setting": "DBTRG-05MG [19]", "value": 0.8},
      {"measurement": "Activity", "setting": "DBTRG-05MG [20]", "value": 26.38, "unit": "%"},
      {"measurement": "Activity", "setting": "DBTRG-05MG [21]", "value": "Active"},
      {"measurement": "Activity", "setting": "RG2 [22]", "value": 20.29, "unit": "%"},
      {"measurement": "Activity_index", "setting": "RG2 [23]", "value": 0.65},
      {"measurement": "fold change (FC)", "setting": "[24]", "value": 0.8},
      {"measurement": "Activity", "setting": "DBTRG-05MG [25]", "value": 49.17, "unit": "%"},
      {"measurement": "CI", "setting": "[26]", "value": 0.88},
      {"measurement": "Activity_index", "setting": "[27]", "value": 0.49},
      {"measurement": "Activity_index", "setting": "[28]", "value": 0.58},
      {"measurement": "fold change (FC)", "setting": "DBTRG-05MG [29]", "value": 1.2},
      {"measurement": "Activity_index", "setting": "[30]", "value": 0.7},
      {"measurement": "CI", "setting": "RG2 [31]", "value": 0.9},
      {"measurement": "Activity", "setting": "RG2 [32]", "value": 61.92, "unit": "%"},
      {"measurement": "Activity", "setting": "DBTRG-05MG [33]", "value": "Active"}
    ]}
  ]
}
